This note sets out measurements from patent publication US8008291B2 (Mimetica Pty Ltd, priority 2008, dated 2011).

A value given as a limit tells only on which side of the number the result lay.

One may read the IC50 as the concentration that inhibits the measured activity by half.

The target of the experiment is T1, human MC5R (hMC5R) (Homo sapiens, UniProt P33032).
T1 construct: purchased Perkin Elmer RBXMC5M400UA
T1 sequence (P33032 whole entry): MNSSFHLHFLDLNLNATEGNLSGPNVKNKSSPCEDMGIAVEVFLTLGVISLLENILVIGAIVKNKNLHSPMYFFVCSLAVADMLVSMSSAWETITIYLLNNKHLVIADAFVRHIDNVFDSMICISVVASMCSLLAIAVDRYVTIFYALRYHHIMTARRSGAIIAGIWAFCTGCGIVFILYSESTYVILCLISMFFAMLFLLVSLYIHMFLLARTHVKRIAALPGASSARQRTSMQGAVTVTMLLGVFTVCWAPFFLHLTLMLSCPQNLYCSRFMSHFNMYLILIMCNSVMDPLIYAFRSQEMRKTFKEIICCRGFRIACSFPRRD
Description: Human MC5R radioligand binding assay (membranes, [125I] NDP-MSH displacement). Particulars: hMC5R binding; tested as trifluoroacetate or hydrochloride salts, or free bases; read-out: MC5R radioligand IC50. The method in brief:
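Frozen human MC5R membranes incubated with test compound and in-house iodogen-labeled, HPLC-purified [125I]NDP-MSH for 1 hr at 37° C. Binding measured as displacement of the radioligand.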
For the molecule `O=C(NC[C@@H]1CCN(CC(c2ccccc2)c2ccccc2)C(=O)[C@H](CCN2CCCCC2)N1)c1cccc(C(F)(F)F)c1` [Compound 436, N-(((3S,5S)-1-(2,2-diphenylethyl)-2-oxo-3-(2-(piperidin-1-yl)ethyl)-1,4-diazepan-5-yl)methyl)-3-(trifluoromethyl)benzamide], the IC50 was below 1 µM.
For `NCC[C@@H]1N[C@H](CNC(=O)c2cccc(C(F)(F)F)c2)CCN(CC(c2ccccc2)c2ccccc2)C1=O` [Compound 437, N-(((3S,5S)-3-(2-aminoethyl)-1-(2,2-diphenylethyl)-2-oxo-1,4-diazepan-5-yl)methyl)-3-(trifluoromethyl)benzamide], the IC50 is below 10 µM.
On to `CC(C)NCC[C@@H]1N[C@H](CNC(=O)c2ccc3cc(Cl)ccc3c2)CCN(Cc2cc(Cl)cc(Cl)c2)C1=O` [Compound 438, 6-chloro-N-(((3S,5S)-1-(3,5-dichlorobenzyl)-3-(2-(isopropylamino)ethyl)-2-oxo-1,4-diazepan-5-yl)methyl)-2-naphthamide], for which the IC50 was below 0.01 µM.
Take `CC(C)NCC[C@@H]1N[C@H](CNC(=O)c2ccc(Cl)c(Cl)c2)CCN(Cc2cc(Cl)cc(Cl)c2)C1=O` [Compound 439, 3,4-dichloro-N-(((3S,5S)-1-(3,5-dichlorobenzyl)-3-(2-(isopropylamino)ethyl)-2-oxo-1,4-diazepan-5-yl)methyl)benzamide]: the concentration for half-maximal inhibition (IC50) is below 0.1 µM.
Under `CC[C@H](CN1CC[C@@H](CNC(=O)c2ccc3cc(Cl)ccc3c2)N[C@@H](CCNC(C)C)C1=O)c1ccccc1` [Compound 440, 6-chloro-N-(((3S,5S)-3-(2-(isopropylamino)ethyl)-2-oxo-1-((S)-2-phenylbutyl)-1,4-diazepan-5-yl)methyl)-2-naphthamide] stands below 0.01 µM; under `CC[C@H](CN1CC[C@@H](CNC(=O)c2ccc3cc(Cl)ccc3c2)N[C@@H](CCN)C1=O)c1ccccc1` [Compound 441, N-(((3S,5S)-3-(2-aminoethyl)-2-oxo-1-((S)-2-phenylbutyl)-1,4-diazepan-5-yl)methyl)-6-chloro-2-naphthamide], below 0.1 µM.
On to `CC[C@H](CN1CC[C@@H](CNC(=O)c2ccc(Cl)c(Cl)c2)N[C@@H](CCN(C)Cc2ccccc2)C1=O)c1ccccc1` [Compound 442, N-(((3S,5S)-3-(2-(benzyl(methyl)amino)ethyl)-2-oxo-1-((S)-2-phenylbutyl)-1,4-diazepan-5-yl)methyl)-3,4-dichlorobenzamide], for which the half-inhibitory concentration (IC50) was below 0.01 µM.
In the case of `CC[C@H](CN1CC[C@@H](CNC(=O)c2ccc(Cl)c(Cl)c2)N[C@@H](CCN2CCNCC2)C1=O)c1ccccc1` [Compound 443, 3,4-dichloro-N-(((3S,5S)-2-oxo-1-((S)-2-phenylbutyl)-3-(2-(piperazin-1-yl)ethyl)-1,4-diazepan-5-yl)methyl)benzamide], the 50% inhibitory concentration (IC50) was below 0.1 µM.
Regarding `CCCCCN(C)CC[C@@H]1N[C@H](CNC(=O)c2ccc(Cl)c(Cl)c2)CCN(C[C@@H](CC)c2ccccc2)C1=O` [Compound 444, 3,4-dichloro-N-(((3S,5S)-3-(2-(methyl(pentyl)amino)ethyl)-2-oxo-1-((S)-2-phenylbutyl)-1,4-diazepan-5-yl)methyl)benzamide], the half-inhibitory concentration (IC50) was below 0.1 µM.
Under `CC[C@H](CN1CC[C@@H](CNC(=O)c2ccc(Cl)c(Cl)c2)N[C@@H](CCN(C(C)C)C(C)C)C1=O)c1ccccc1` [Compound 445, 3,4-dichloro-N-(((3S,5S)-3-(2-(diisopropylamino)ethyl)-2-oxo-1-((S)-2-phenylbutyl)-1,4-diazepan-5-yl)methyl)benzamide] stands below 0.01 µM; under `CC[C@H](CN1CC[C@@H](CNC(=O)c2ccc(Cl)c(Cl)c2)N[C@@H](CCN2CCC(C)CC2)C1=O)c1ccccc1` [Compound 446, 3,4-dichloro-N-(((3S,5S)-3-(2-(4-methylpiperidin-1-yl)ethyl)-2-oxo-1-((S)-2-phenylbutyl)-1,4-diazepan-5-yl)methyl)benzamide], below 0.01 µM.
Under `CC[C@H](CN1CCC(CNC(=O)c2ccc3cc(Cl)ccc3c2)NC(C2CCNCC2)C1=O)c1ccccc1` (stereo partly drawn) [Compound 447, (S)-6-chloro-N-((2-oxo-1-(2-phenylbutyl)-3-(piperidin-4-yl)-1,4-diazepan-5-yl)methyl)-2-naphthamide] stands below 0.1 µM; under `CC[C@H](CN1CCC(CNC(=O)c2ccc3cc(Cl)ccc3c2)NC(C2CCN(CCC(C)C)CC2)C1=O)c1ccccc1` (stereo partly drawn) [Compound 448], below 0.1 µM; under `CC[C@H](CN1CC[C@@H](CNC(=O)c2ccc(Cl)c(Cl)c2)N[C@@H](CCN2CC(C)CC(C)C2)C1=O)c1ccccc1` (stereo partly drawn) [Compound 449, 3,4-dichloro-N-(((3S,5S)-3-(2-(3,5-dimethylpiperidin-1-yl)ethyl)-2-oxo-1-((S)-2-phenylbutyl)-1,4-diazepan-5-yl)methyl)benzamide], below 0.1 µM.
Turning to `CC[C@H](CN1CC[C@@H](CNC(=O)c2ccc(Cl)c(Cl)c2)N[C@@H](CCN2CCC(O)CC2)C1=O)c1ccccc1` [Compound 450, 3,4-dichloro-N-(((3S,5S)-3-(2-(4-hydroxypiperidin-1-yl)ethyl)-2-oxo-1-((S)-2-phenylbutyl)-1,4-diazepan-5-yl)methyl)benzamide], the half-inhibitory concentration (IC50) is below 0.1 µM.
In the case of `CC[C@H](CN1CC[C@@H](CNC(=O)c2ccc(Cl)c(Cl)c2)N[C@@H](CCN2CCC(C(=O)O)CC2)C1=O)c1ccccc1` [Compound 451, 1-(2-((2S,7S)-7-((3,4-dichlorobenzamido)methyl)-3-oxo-4-((S)-2-phenylbutyl)-1,4-diazepan-2-yl)ethyl)piperidine-4-carboxylic acid], the IC50 is below 0.1 µM.
As to `CC[C@H](CN1CC[C@@H](CNC(=O)c2ccc(Cl)c(Cl)c2)N[C@@H](CCN2CCCCCC2)C1=O)c1ccccc1` [Compound 452, N-(((3S,5S)-3-(2-(azepan-1-yl)ethyl)-2-oxo-1-((S)-2-phenylbutyl)-1,4-diazepan-5-yl)methyl)-3,4-dichlorobenzamide], the IC50 is below 0.1 µM.
Regarding `CC[C@H](CN1CC[C@@H](CNC(=O)c2ccc(Cl)c(Cl)c2)N[C@@H](CCN2CCCC[C@@H]2C)C1=O)c1ccccc1` [Compound 453, 3,4-dichloro-N-(((3S,5S)-3-(2-((S)-2-methylpiperidin-1-yl)ethyl)-2-oxo-1-((S)-2-phenylbutyl)-1,4-diazepan-5-yl)methyl)benzamide], the IC50 was below 0.01 µM.
`CC[C@H](CN1CC[C@@H](CNC(=O)c2ccc(Cl)c(Cl)c2)N[C@@H](CCN(C)C(C)(C)C)C1=O)c1ccccc1` [Compound 454, N-(((3S,5S)-3-(2-(tert-butyl(methyl)amino)ethyl)-2-oxo-1-((S)-2-phenylbutyl)-1,4-diazepan-5-yl)methyl)-3,4-dichlorobenzamide]: the IC50 is below 0.1 µM.
As for `CC[C@H](CN1CCC(CNC(=O)c2ccc3cc(Cl)ccc3c2)NC(C2CCN(CC)CC2)C1=O)c1ccccc1` (stereo partly drawn) [Compound 455, 6-chloro-N-((3-(1-ethylpiperidin-4-yl)-2-oxo-1-((S)-2-phenylbutyl)-1,4-diazepan-5-yl)methyl)-2-naphthamide], the IC50 was below 0.1 µM.
As for `O=C1[C@H](CCN2CCCCC2)N[C@H](CNCc2ccc(Cl)c(Cl)c2)CCN1CC(c1ccccc1)c1ccccc1` [Compound 456, (3S,5S)-5-((3,4-dichlorobenzylamino)methyl)-1-(2,2-diphenylethyl)-3-(2-(piperidin-1-yl)ethyl)-1,4-diazepan-2-one], the concentration for half-maximal inhibition (IC50) was below 0.1 µM.
